{
  "source": "patent US11053218B2",
  "about": "“3-(1-oxoisoindolin-2-yl)piperidine-2,6-dione derivatives and uses thereof” (Novartis AG, priority 2017, dated 2021)",
  "assay_type_in_all_cases": "cell-based",
  "key": {"[1]": {"test_system": "primary human regulatory T cells", "experiment": "In vitro suppression of the proliferation of CD4+ T cells by expanded Treg cells", "conditions": "five independent donors, vs DMSO, FIG. 3", "procedure": "(§1) Human buffy coats were obtained from BioreclamationIVT, in the USA. CD4+ T cells were isolated from said buffy coats using the RosetteSep Human CD4+ T cell enrichment Cocktail (Stemcell technologies, USA) and gradient centrifugation over Ficoll Paque Plus (GE HealthCare LifeSciences, USA) as per manufacturer's recommendations. Cells were resuspended in RPMI medium supplemented with 1% penicillin-Streptomycin solution, 10% Fetal Bovine Serum, HEPES (10 mM), MEM NEAA ([…]), sodium pyruvate (1 mM) (all supplements from Thermo Fisher Scientific, USA), thereafter referred to as complete RPMI (cRPMI), and rested overnight at 37° C., 5% CO2 in the presence of 2 U/mL rhIL-2 (Proleukin, Novartis). Cells were collected and resuspended in autoMACS Running Buffer supplemented with BSA (Miltenyi Biotec, USA) and labelled using CD4-FITC antibody (clone RPA-T4), CD25-APC antibody (clone M-A251) (Biolegend) and CD25 Microbeads (Miltenyi Biotec, USA). CD25-enriched cells were then isolated using the autoMACS Pro Separator. […]\nPrimary human PBMCs were obtained from freshly prepared buffy coats (BioReclamationIVT) using gradient centrifugation over Ficoll Paque Plus as per manufacturer's recommendations. […] Proliferation was assessed in each population as the proportion of cells having diluted CFSE. Suppression was assessed for each condition in comparison to the responders plated alone."}, "[2]": {"target": "IKZF1 (Homo sapiens, UniProt Q13422+Q96SW2)", "sequence (Q13422 whole entry)": "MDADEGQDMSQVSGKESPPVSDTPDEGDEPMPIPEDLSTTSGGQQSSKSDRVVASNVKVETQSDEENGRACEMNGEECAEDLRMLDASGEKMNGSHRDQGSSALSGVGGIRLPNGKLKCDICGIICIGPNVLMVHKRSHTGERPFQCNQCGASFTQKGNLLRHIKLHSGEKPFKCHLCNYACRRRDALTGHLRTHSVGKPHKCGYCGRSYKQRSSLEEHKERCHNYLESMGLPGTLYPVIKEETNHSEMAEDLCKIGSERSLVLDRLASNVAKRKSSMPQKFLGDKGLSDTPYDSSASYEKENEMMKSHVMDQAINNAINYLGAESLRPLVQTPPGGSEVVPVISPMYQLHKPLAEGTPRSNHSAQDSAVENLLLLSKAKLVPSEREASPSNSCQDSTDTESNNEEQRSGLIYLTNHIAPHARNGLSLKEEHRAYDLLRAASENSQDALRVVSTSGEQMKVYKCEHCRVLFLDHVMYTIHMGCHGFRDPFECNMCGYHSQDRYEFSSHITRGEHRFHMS", "sequence (Q96SW2 whole entry)": "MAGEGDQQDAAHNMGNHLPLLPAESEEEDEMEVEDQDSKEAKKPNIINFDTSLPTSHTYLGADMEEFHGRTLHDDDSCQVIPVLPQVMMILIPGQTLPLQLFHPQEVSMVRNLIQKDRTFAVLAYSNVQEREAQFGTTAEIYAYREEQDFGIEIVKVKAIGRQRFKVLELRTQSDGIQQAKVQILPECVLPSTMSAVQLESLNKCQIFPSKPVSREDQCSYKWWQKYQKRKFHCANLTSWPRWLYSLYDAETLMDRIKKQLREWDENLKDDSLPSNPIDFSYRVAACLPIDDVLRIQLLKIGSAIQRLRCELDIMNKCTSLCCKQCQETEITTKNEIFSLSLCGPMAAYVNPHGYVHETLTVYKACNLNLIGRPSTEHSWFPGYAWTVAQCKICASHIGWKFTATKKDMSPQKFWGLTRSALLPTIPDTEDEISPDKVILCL", "sequence (Q16531 whole entry partner)": "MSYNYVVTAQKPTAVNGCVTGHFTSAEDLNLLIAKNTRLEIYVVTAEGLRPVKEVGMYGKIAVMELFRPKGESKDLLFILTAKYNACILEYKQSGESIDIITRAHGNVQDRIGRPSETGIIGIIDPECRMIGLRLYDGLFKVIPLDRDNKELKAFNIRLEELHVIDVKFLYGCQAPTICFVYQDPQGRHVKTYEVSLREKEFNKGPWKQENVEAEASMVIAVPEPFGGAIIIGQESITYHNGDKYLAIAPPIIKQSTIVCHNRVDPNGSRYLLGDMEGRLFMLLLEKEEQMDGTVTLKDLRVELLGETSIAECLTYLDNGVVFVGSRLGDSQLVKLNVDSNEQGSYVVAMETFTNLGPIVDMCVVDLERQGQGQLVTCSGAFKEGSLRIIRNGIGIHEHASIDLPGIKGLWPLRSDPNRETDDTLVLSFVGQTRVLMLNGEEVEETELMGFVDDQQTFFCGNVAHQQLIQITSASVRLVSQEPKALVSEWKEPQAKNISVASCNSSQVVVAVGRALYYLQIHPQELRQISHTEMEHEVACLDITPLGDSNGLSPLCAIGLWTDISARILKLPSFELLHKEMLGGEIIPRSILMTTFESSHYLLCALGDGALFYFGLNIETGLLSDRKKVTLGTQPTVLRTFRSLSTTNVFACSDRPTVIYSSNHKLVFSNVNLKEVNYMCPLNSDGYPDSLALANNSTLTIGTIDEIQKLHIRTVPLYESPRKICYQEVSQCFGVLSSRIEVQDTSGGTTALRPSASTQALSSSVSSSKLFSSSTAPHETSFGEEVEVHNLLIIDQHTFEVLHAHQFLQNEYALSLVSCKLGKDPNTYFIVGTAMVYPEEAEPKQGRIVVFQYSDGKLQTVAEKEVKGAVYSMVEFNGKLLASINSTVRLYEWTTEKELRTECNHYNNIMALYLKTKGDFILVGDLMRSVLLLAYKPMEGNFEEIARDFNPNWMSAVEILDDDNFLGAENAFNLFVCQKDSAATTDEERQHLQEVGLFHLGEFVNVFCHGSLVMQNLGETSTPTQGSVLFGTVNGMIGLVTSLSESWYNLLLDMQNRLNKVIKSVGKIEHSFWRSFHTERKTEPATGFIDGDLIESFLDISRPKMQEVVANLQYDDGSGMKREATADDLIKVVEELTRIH", "experiment": "Prolabel quantification of IKZF1 protein levels in 293GT cells", "conditions": "Prolabel assay, read-out: IKZF1 EC50"}, "[3]": {"target": "IKZF2 (Homo sapiens, UniProt Q96SW2+Q9UKS7)", "sequence (Q9UKS7 whole entry)": "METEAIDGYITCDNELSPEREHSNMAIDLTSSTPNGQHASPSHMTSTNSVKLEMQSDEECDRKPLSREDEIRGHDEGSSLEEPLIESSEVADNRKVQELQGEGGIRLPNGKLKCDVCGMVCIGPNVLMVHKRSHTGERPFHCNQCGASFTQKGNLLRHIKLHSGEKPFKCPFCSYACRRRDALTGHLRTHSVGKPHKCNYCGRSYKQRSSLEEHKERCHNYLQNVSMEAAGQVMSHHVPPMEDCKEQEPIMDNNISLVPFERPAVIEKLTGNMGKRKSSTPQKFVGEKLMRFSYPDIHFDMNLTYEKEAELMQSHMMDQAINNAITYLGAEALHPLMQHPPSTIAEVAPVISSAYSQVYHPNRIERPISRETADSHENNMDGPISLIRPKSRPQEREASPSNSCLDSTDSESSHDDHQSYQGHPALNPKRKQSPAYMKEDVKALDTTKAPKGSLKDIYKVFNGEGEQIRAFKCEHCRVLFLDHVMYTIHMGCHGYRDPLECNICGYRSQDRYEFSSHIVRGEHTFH", "sequence (Q96SW2 whole entry)": "as the sequence (Q96SW2 whole entry) above", "sequence (Q16531 whole entry partner)": "as the sequence (Q16531 whole entry partner) above", "experiment": "Prolabel quantification of IKZF2 protein levels in 293GT cells"}, "[4]": {"test_system": "primary human regulatory T cells"}, "[5]": {"target": "GSPT1 (Homo sapiens, UniProt P15170+Q96SW2)", "sequence (P15170 whole entry)": "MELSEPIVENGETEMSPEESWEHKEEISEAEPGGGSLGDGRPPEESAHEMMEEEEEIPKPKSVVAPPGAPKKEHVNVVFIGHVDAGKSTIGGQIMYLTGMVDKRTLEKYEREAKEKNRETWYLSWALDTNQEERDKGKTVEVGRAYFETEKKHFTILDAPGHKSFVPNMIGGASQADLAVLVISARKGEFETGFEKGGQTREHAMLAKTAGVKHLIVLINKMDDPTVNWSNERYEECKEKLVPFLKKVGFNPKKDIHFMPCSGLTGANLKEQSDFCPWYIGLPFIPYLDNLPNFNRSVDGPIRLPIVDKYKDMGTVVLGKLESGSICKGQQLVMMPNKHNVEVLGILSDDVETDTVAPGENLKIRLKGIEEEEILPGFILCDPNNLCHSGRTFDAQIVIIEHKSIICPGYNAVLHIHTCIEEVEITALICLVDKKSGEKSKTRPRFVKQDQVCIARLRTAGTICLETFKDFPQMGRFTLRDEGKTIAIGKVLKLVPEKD", "sequence (Q96SW2 whole entry)": "as the sequence (Q96SW2 whole entry) above", "sequence (Q16531 whole entry partner)": "as the sequence (Q16531 whole entry partner) above", "experiment": "Prolabel quantification of GSPT1 protein levels in 293GT cells", "conditions": "Prolabel assay, read-out: GSPT1 EC50"}, "[6]": {"test_system": "primary human regulatory T cells", "experiment": "Expansion of purified primary human Treg cells in the presence of compound", "conditions": "FIG. 1", "procedure": "as §1, with “Separator. A highly purified population of Treg cells was then obtained by further sorting CD4+CD25Hi cells using a Sony SH800 cell sorter. The resulting Treg cell population was routinely above 90% pure according to FOXP3 expression.” for “Separator.”\nCell were collected and counted and the fold expansion was calculated as (number of cells recovered)/(number of cells plated). […]"}},
  "note": "Entries after “also recorded” stand apart in the source; their conditions may differ.",
  "data": [
    {"smiles": "O=C1CCC(N2Cc3cc(C4CCN(Cc5ccccc5)CC4)ccc3C2=O)C(=O)N1", "note": "(stereo not drawn) [Compound I-57, 3-(5-(1-benzylpiperidin-4-yl)-1-oxoisoindolin-2-yl)piperidine-2,6-dione]", "values": [
      {"measurement": "In vitro suppression of the proliferation of CD4+ T cells by expanded Treg cells", "setting": "[1]", "value": "impaired; also recorded: less able to repress"},
      {"measurement": "DC50", "setting": "[2]", "value": "> 50", "unit": "µM"},
      {"measurement": "IKZF2 protein levels as compared to the control (DMSO)", "setting": "[3]", "value": "decreased"},
      {"measurement": "inhibition at 10 µM", "setting": "[3]; 24 h, read-out: IKZF2 % protein reduction at 10 μM, 24 h", "value": 70, "unit": "%"},
      {"measurement": "DC50", "setting": "[3]; Prolabel assay, 293GT cells, read-out: IKZF2 EC50", "value": 0.009, "unit": "µM"},
      {"measurement": "Increase of the proportion of cells producing IL-2 (median)", "setting": "[4]", "value": 2.16, "unit": "fold"},
      {"measurement": "DC50", "setting": "[5]", "value": "> 50", "unit": "µM"},
      {"measurement": "Treg cells expand less in the presence of compound", "setting": "[6]; expanded in vitro 12 days, vs DMSO, compound 10 μM", "value": 30, "unit": "%"},
      {"measurement": "Expansion of purified Treg cells as compared to the control", "setting": "[6]; purified primary human Treg cells, DMSO control", "value": "impaired"}
    ]}
  ]
}
